Experimental findings from patent US7358044B2, “Prophylactic and therapeutic benefits of a new class of immune stimulating peptides” (priority 2003, dated 2008) are described below.

Marks after values point to notes of the source that are not given here.

In one test the test system is clinical mastitis. As to the kind of experiment: Clinical mastitis, ICPF versus Polyflex. The test is classed as in vivo, bovine. The method, then:
Nineteen animals were showing signs of clinical mastitis, i.e. abnormal milk appearance, painful teat, etc. These animals were randomly assigned to either a test or a control group. The control group animals (n=10) were treated according to the dairy's normal practice for treatment of clinical cases of mastitis, i.e. intramuscular injection of Polyflex brand (Fort Dodge Animal Health) of ampicillin (5 mg/lb×3 days). […] The SCC's for the treatment and control animals were compared 30 days later. The means of the pre-treatment test and control groups were determined to not be statistically different and neither were the standard deviations of the two groups statistically different. […] Two animals in the test group were refractory to treatment.

A further test has as its system NK cells. In words: NK cell activity of splenocytes from treated mice, chromium-release assay. The test is classed as in vivo. From the text:
The results are depicted in Table 2.

A further test concerns J774A.1 macrophages. In words: Macrophage activation, NO production (Greiss reagent). It counts as cell-based. The method, then: J774A.1 macrophages (ATCC TIB67, 5×10^4 viable cells/well) were cultured in Dulbecco's Modified Eagle Medium (DMEM, high glucose)+10% FBS+100 U/ml penicillin+100 μg/ml streptomycin for 24 hr prior to treatment addition. NO production was determined colorimetrically using the Greiss reagent 24 hr after experimental treatments. […] Statistical significance was analyzed by comparison of mean values using the Student's t test (unpaired, two-tailed).

Setting [1] is: 0.25 ml i.p. (5 mg ICPF or 20 μg Poly I:C), spleens harvested the following day, mean n = 3 with standard error.

Consider `CC1(C)S[C@@H]2[C@H](NC(=O)[C@H](N)c3ccccc3)C(=O)N2[C@H]1C(=O)O` [Polyflex, ampicillin], for which the “animals that showed improvement” value in the test with clinical mastitis (30 days, Polyflex 5 mg/lb x 3 days i.m. (n=10)) is “one”. In the test with clinical mastitis (Polyflex 5 mg/lb x 3 days i.m., n=10, test period), the “average somatic cell count for the group increased by” value is 7%.

In the case of Poly I:C, in the test with NK cells (setting [1]), the “Percent 51Cr released at E:T ratios 50:1” value is reported as 19.1 ± 1.0^b Percent, the “Percent 51Cr released at E:T ratios 100:1” value was 31.5 ± 1.1^b Percent and the “Percent 51Cr released at E:T ratios 200:1” value is reported as 35.3 ± 1.6^b Percent. Besides, the “direct activation of NK cells” value in the test with NK cells (naive mice, E:T ratios of 200:1, 100:1, and 50:1) is given as “induced activation of NK cells”.

Turning to “ICPF-peptide: Purified peptide from ICPF (RSVSLSYRF)”, the “induction of NO in combination with LPS” value in the test on J774A.1 macrophages (ICPF 100 μg/ml or ICPF-peptide 10 μg/ml with LPS 0-10 μg/ml in the absence of IFN-γ) is listed as “unable to induce NO”. Besides, the “amount of NO induced by the minimal stimulatory dose of LPS + IFN-γ” value in the test with J774A.1 macrophages (ICPF-peptide 0.1-100 μg/ml, LPS 10 ng/ml + IFN-γ 1-5 U/ml) was “did not modulate the amount of NO”. For the same compound, the “dose of LPS required to induce NO” value with J774A.1 macrophages (IFN-γ stimulated macrophages, ICPF 100 μg/ml, ICPF-peptide 10 μg/ml) is given as “Neither ICPF (100 μg/ml) nor ICPF-peptide (10 μg/ml) altered the dose of LPS required to induce NO”. Besides, the “dose of IFN-γ required to induce NO” value in the test with J774A.1 macrophages (LPS-stimulated macrophages, ICPF 100 μg/ml, ICPF-peptide 10 μg/ml) is reported as “Neither ICPF (100 μg/ml) nor ICPF-peptide (10 μg/ml) altered the dose of IFN-γ required to induce NO”. The “induction of NO” value in the test on J774A.1 macrophages (purified peptide 0.1-100 μg/ml, absence or presence of IFN-γ) is recorded as “failed to induce NO”.
